Literature values in PubChem BioAssay AID1259409 (Chemical Carcinogenesis Research Information System (CCRIS), 2018).

System: rodent chemically induced tumor inhibition, incidence and multiplicity
Assay: CCRIS tumor inhibitor studies

## O=C(O)[C@H](O)[C@@H](O)[C@H](O)[C@H](O)CO
Carcinogen: 1,2-DIMETHYLHYDRAZINE DIHYDROCHLORIDE, 306-37-6, Dose [Inhibitor]: 0, 1% IN DIET FOR 8 MO BEGINNING 2 WK POST CARCINOGEN (STUDY DURATION: 8 MO, 2 WK), Route [Inhibitor]: ORAL, Species: RAT, Strain/Sex: F344/MALE, Target Tissue: Type of Lesion: COLON: TUMOR, Dose [Carcinogen]: 200 MG/KG IN 0.9% NACL ONCE
  tumour outcome (control, treated, inhibition, significance): 15/27 (56%), 17/28 (61%), -9%, not significant
Carcinogen: 1,2-DIMETHYLHYDRAZINE DIHYDROCHLORIDE, 306-37-6, Dose [Inhibitor]: 0, 2% IN DIET FOR 8 MO BEGINNING 2 WK POST CARCINOGEN (STUDY DURATION: 8 MO, 2 WK), Route [Inhibitor]: ORAL, Species: RAT, Strain/Sex: F344/MALE, Target Tissue: Type of Lesion: COLON: TUMOR, Dose [Carcinogen]: 200 MG/KG IN 0.9% NACL ONCE
  tumour outcome (control, treated, inhibition, significance): 15/27 (56%), 7/17 (41%), 27%, not significant

## Cc1c[nH]c(=O)[nH]c1=O
Carcinogen: 7,12-DIMETHYLBENZ[A]ANTHRACENE, 57-97-6, Dose [Inhibitor]: 1% IN 20% PROTEIN DIET AND 0.5% IN DRINKING WATER (STUDY DURATION: 150 D), Route [Inhibitor]: ORAL, Species: RAT, Strain/Sex: STRAIN-CB/FEMALE, Target Tissue: Type of Lesion: MAMMARY GLAND: TUMOR, Dose [Carcinogen]: 15 MG IN 1 ML ARACHIS OIL TWICE 14 D APART, Promoter: NONE USED
  tumour outcome (control, treated, inhibition, significance): 11/11 (100%), 6/11 (55%), 45%, not calculated
Carcinogen: 7,12-DIMETHYLBENZ[A]ANTHRACENE, 57-97-6, Dose [Inhibitor]: 1.5% IN 20% PROTEIN DIET (STUDY DURATION: 100 D), Route [Inhibitor]: ORAL, Species: RAT, Strain/Sex: STRAIN-CB/FEMALE, Target Tissue: Type of Lesion: MAMMARY GLAND: TUMOR, Dose [Carcinogen]: 15 MG IN 1 ML ARACHIS OIL THREE DOSES GIVEN 1/2 WK, Promoter: NONE USED
  tumour outcome (control, treated, inhibition, significance): 18/18 (100%), 16/20 (80%), 20%, not calculated
Carcinogen: NONE USED, Dose [Inhibitor]: 0.4% IN DRINKING WATER, STARTING AT 7-9 WK OF AGE AND CONTINUING FOR DURATION OF STUDY (STUDY DURATION: 10-12 MO), Route [Inhibitor]: ORAL, Species: MOUSE, Strain/Sex: STRAIN-A/MALE, FEMALE, Target Tissue: Type of Lesion: LUNG: ADENOMA, Promoter: NONE USED
  tumour outcome (control, treated, inhibition, significance): 48%, 17%, 65%, p 0.02

## O=c1ccc2cc(O)c(O)cc2o1
Carcinogen: 7,12-DIMETHYLBENZ[A]ANTHRACENE, 57-97-6, Dose [Inhibitor]: 0, 0.03% IN HIGH-FAT (20% SOYBEAN OIL) DIET FOR 19 WK BEGINNING 1 WK POST CARCINOGEN DOSE (STUDY DURATION: 20 WK), Route [Inhibitor]: ORAL, Species: RAT, Strain/Sex: SPRAGUE-DAWLEY/FEMALE, Target Tissue: Type of Lesion: MAMMARY GLAND: TUMOR, Dose [Carcinogen]: 5 MG ONCE, Promoter: NONE USED
  tumour outcome (control, treated, inhibition, significance): 13/15 (87%), 8/15 (53%), 39%, p<0.05
Carcinogen: 7,12-DIMETHYLBENZ[A]ANTHRACENE, 57-97-6, Dose [Inhibitor]: 0, 0.03% IN HIGH-FAT (20% SOYBEAN OIL) DIET FOR 20 WK BEGINNING 1 WK POST CARCINOGEN DOSE (STUDY DURATION: 21 WK), Route [Inhibitor]: ORAL, Species: RAT, Strain/Sex: SPRAGUE-DAWLEY/FEMALE, Target Tissue: Type of Lesion: MAMMARY GLAND: ADENOCARCINOMA, Dose [Carcinogen]: 5 MG ONCE, Promoter: NONE USED
  tumour outcome (control, treated, inhibition, significance): 17/20 (85%), 10/19 (53%), 38%, p<0.05
Carcinogen: 7,12-DIMETHYLBENZ[A]ANTHRACENE, 57-97-6, Dose [Inhibitor]: 0, 0.03% IN LOW-FAT (0.5% SOYBEAN OIL) DIET FOR 19 WK BEGINNING 1 WK POST CARCINOGEN DOSE (STUDY DURATION: 20 WK), Route [Inhibitor]: ORAL, Species: RAT, Strain/Sex: SPRAGUE-DAWLEY/FEMALE, Target Tissue: Type of Lesion: MAMMARY GLAND: TUMOR, Dose [Carcinogen]: 5 MG ONCE, Promoter: NONE USED
  tumour outcome (control, treated, inhibition, significance): 8/15 (53%), 3/15 (20%), 62%, not significant
Carcinogen: 7,12-DIMETHYLBENZ[A]ANTHRACENE, 57-97-6, Dose [Inhibitor]: 0, 0.03% IN LOW-FAT (0.5% SOYBEAN OIL) DIET FOR 20 WK BEGINNING 1 WK POST CARCINOGEN DOSE (STUDY DURATION: 21 WK), Route [Inhibitor]: ORAL, Species: RAT, Strain/Sex: SPRAGUE-DAWLEY/FEMALE, Target Tissue: Type of Lesion: MAMMARY GLAND: ADENOCARCINOMA, Dose [Carcinogen]: 5 MG ONCE, Promoter: NONE USED
  tumour outcome (control, treated, inhibition, significance): 10/18 (56%), 4/22 (18%), 68%, p<0.05
Carcinogen: N-METHYL-N-NITROSOUREA, 684-93-5, Dose [Inhibitor]: 0, 0.03% IN DIET FOR 24 WK BEGINNING 1 WK POST CARCINOGEN DOSE (STUDY DURATION: 25 WK), Route [Inhibitor]: ORAL, Species: RAT, Strain/Sex: SPRAGUE-DAWLEY/FEMALE, Target Tissue: Type of Lesion: MAMMARY GLAND: TUMOR, Dose [Carcinogen]: 50 MG/KG ONCE, Promoter: NONE USED
  tumour outcome (control, treated, inhibition, significance): 24/30 (80%), 17/31 (55%), 31%, p<0.05

## COc1ccc2cc1Oc1ccc(cc1)C[C@H]1c3cc(c(OC)cc3CCN1C)Oc1c(OC)c(OC)cc3c1[C@@H](C2)N(C)CC3
Carcinogen: 7,12-DIMETHYLBENZ[A]ANTHRACENE, 57-97-6, Dose [Inhibitor]: 0, 2 UMOL 2/WK 30 MIN PRIOR TO EACH PROMOTER DOSE BEGINNING 1 WK POST CARCINOGEN DOSE (STUDY DURATION: 18 WK), Route [Inhibitor]: DERMAL, Species: MOUSE, Strain/Sex: ICR/FEMALE, Target Tissue: Type of Lesion: SKIN: PAPILLOMA, Dose [Carcinogen]: 50 UG ONCE, Promoter: 12-O-TETRADECANOYLPHORBOL-13-ACETATE, 16561-29-8
  tumour outcome (control, treated, inhibition, significance): 100%, 27%, 73%, not calculated
